# Source: US20220249343A1, “COSMETIC COMPOSITION INCLUDING 5-BENZYLAMINOSALICYLIC ACID DERIVATIVE, AND TOPICAL USE THEREOF” (GNT PHARMA CO., LTD., priority 2019, published 2022)
# Test system: human skin
# Experiment: Safety assessment for human skin: patch test
# Format: in vivo
# Settings: human volunteers
# Description: Safety of Compound 2 was assessed by a patch test of 33 human volunteers. At this time, a patch treated with a composition containing 0.0544 mg/ml of compound 2 was attached to the test site, after 24 hours, the patch was removed and the location was marked. After 1 hour, a degree of reactivity was determined and recorded.
# The skin reactivity was calculated by multiplying the average of evaluated values for 33 subjects by 25, while the skin irritation index was determined by dividing the above calculated value by the number of evaluations.
# The degree of skin irritation of the test substance was determined with reference to the skin irritation index table (Table 1).
structure (smiles),measurement,value
O=C(O)c1cc(NCCc2ccc(C(F)(F)F)cc2)ccc1O [Compound 2],adverse skin reactions during the period of use,no reports of specific adverse skin reactions
same,findings on physical examination by a dermatologist,no abnormal findings were observed
